Patent publication US20220395472A1 (Dermavant Sciences GmbH, priority 2021, published 2022)

Test system: adults with plaque psoriasis
Assay: Long-term open-label extension study (PSOARING 3): Physician Global Assessment (PGA), treatment episodes, treatment success, remittive effect
Type: in vivo, human
Description: This extension study consisted of up to 40 weeks of treatment and a 4 week, safety follow up period.
At the completion of the Week 12 visit of the DB, pivotal Phase 3 study, eligibility of the subjects opting to enroll in this extension study was confirmed. Study visits during the treatment period for all subjects occurred every 4 weeks (±3 days). A phone call was performed at Week 2 (Day 15). Unscheduled visits may have occurred, as needed. Subjects who withdrew from this study before Week 40 returned to the study center for an Early Termination visit. The total duration of this extension study participation was 44 weeks. Subjects in this study were treated as follows based on their PGA score from the Week 12 visit in the DB, pivotal Phase 3 study (Study DMVT 505 3001 or Study DMVT 505 3002).
The PGA was used to assess the primary efficacy endpoint in this study. The PGA is a clinical tool for assessing the current state/severity of a subject's psoriasis at a given time point. It is a static, 5 point, morphological assessment of overall disease severity, as determined by the Investigator, using the clinical characteristics of erythema, scaling, and plaque thickness/elevation as guidelines; higher PGA scores represent more severe disease (0=clear, 1=almost clear, 2=mild, 3=moderate, and 4=severe). The BSA affected was not considered in scoring of the PGA. Variations of the PGA are frequently used in clinical studies because it is a simple assessment, similar to those used in clinical practice. The PGA was performed first, prior to the % BSA, PASI, and LTS assessments.
Time to event parameters, such as the time from treatment success to subsequent worsening (PGA≥2) or duration of treatment episode, were summarized by the Kaplan Meier product limit method using OC.

[1] = Baseline PGA = 1, Tapinarof (Pivotal) group
[2] = Baseline PGA = 1, Vehicle (Pivotal) group
[3] = Baseline PGA = 2, Tapinarof (Pivotal) group

CC(C)c1c(O)cc(/C=C/c2ccccc2)cc1O [Tapinarof, 3,5-Dihydroxy-4-isopropyl-trans-stilbene]
Duration of 3rd Success, Mean (SD) (Baseline PGA = 1, Overall): 15.0 (19.80) days
Duration of 3rd Success, Median (Baseline PGA = 1, Overall): 15.0 days
Duration of Last Episode, Mean (SD) (Baseline PGA = 1, Overall): 146.7 (95.87) days
Duration of Last Episode, Median (Baseline PGA = 1, Overall): 141.0 days
Duration of Last Success, Median (Baseline PGA = 1, Overall): 90.0 days
Total Duration of Treatment Episodes, Mean (SD) (Baseline PGA = 1, Overall): 165.9 (90.32) days
Total Duration of Treatment Episodes, Median (Baseline PGA = 1, Overall): 193.0 days
Total Duration of Treatment Success, Mean (SD) (Baseline PGA = 1, Overall): 124.5 (78.53) days
Total Duration of Treatment Success, Median (Baseline PGA = 1, Overall): 120.0 days
Average Duration of Episodes, Mean (SD) [1]: 138.9 (94.99) days
Average Duration of Episodes, Median [1]: 112.0 days
Average Duration of Treatment Success, Mean (SD) [1]: 106.8 (76.36) days
Average Duration of Treatment Success, Median [1]: 92.5 days
Duration of 1st Episode, Mean (SD) [1]: 132.6 (99.69) days
Duration of 1st Episode, Median [1]: 85.5 days
Duration of 1st Success, Mean (SD) [1]: 106.3 (77.57) days
Duration of 1st Success, Median [1]: 86.0 days
Duration of 2nd Episode, Mean (SD) [1]: 97.9 (62.19) days
Duration of 2nd Episode, Median [1]: 83.0 days
Duration of 2nd Success, Mean (SD) [1]: 71.6 (58.68) days
Duration of 2nd Success, Median [1]: 52.0 days
Duration of 3rd Episode, Mean (SD) [1]: 54.9 (56.83) days
Duration of 3rd Episode, Median [1]: 28.0 days
Duration of 3rd Success, Mean (SD) [1]: 15.0 (19.80) days
Duration of 3rd Success, Median [1]: 15.0 days
Duration of Last Episode, Mean (SD) [1]: 145.2 (96.38) days
Duration of Last Episode, Median [1]: 144.0 days
Duration of Last Success, Mean (SD) [1]: 107.2 (79.80) days
Duration of Last Success, Median [1]: 85.5 days
Total Duration of Treatment Episodes, Mean (SD) [1]: 165.9 (90.68) days
Total Duration of Treatment Episodes, Median [1]: 194.5 days
Total Duration of Treatment Success, Mean (SD) [1]: 123.7 (78.29) days
Total Duration of Treatment Success, Median [1]: 116.5 days
Average Duration of Episodes, Mean (SD) [2]: 150.0 (97.54) days
Average Duration of Episodes, Median [2]: 112.0 days
Average Duration of Treatment Success, Mean (SD) [2]: 116.9 (71.80) days
Average Duration of Treatment Success, Median [2]: 127.0 days
Duration of 1st Episode, Mean (SD) [2]: 141.1 (105.95) days
Duration of 1st Episode, Median [2]: 112.0 days
Duration of 1st Success, Mean (SD) [2]: 115.0 (71.74) days
Duration of 1st Success, Median [2]: 127.0 days
Duration of 2nd Episode, Mean (SD) [2]: 104.0 (61.27) days
Duration of 2nd Episode, Median [2]: 109.5 days
Duration of 2nd Success, Mean (SD) [2]: 144.0 (NE) days
Duration of 2nd Success, Median [2]: 144.0 days
Duration of Last Episode, Mean (SD) [2]: 159.0 (93.38) days
Duration of Last Episode, Median [2]: 134.0 days
Duration of Last Success, Mean (SD) [2]: 118.9 (72.32) days
Duration of Last Success, Median [2]: 136.0 days
Total Duration of Treatment Episodes, Mean (SD) [2]: 165.5 (89.94) days
Total Duration of Treatment Episodes, Median [2]: 140.0 days
Total Duration of Treatment Success, Mean (SD) [2]: 131.0 (85.06) days
Total Duration of Treatment Success, Median [2]: 136.0 days
Average Duration of Episodes, Mean (SD) (Baseline PGA = 2, Overall): 175.5 (93.95) days
Average Duration of Episodes, Median (Baseline PGA = 2, Overall): 197.0 days
Average Duration of Treatment Success, Mean (SD) (Baseline PGA = 2, Overall): 83.6 (69.31) days
Average Duration of Treatment Success, Median (Baseline PGA = 2, Overall): 66.5 days
Duration of 1st Episode, Mean (SD) (Baseline PGA = 2, Overall): 177.8 (92.43) days
Duration of 1st Episode, Median (Baseline PGA = 2, Overall): 197.0 days
Duration of 1st Success, Mean (SD) (Baseline PGA = 2, Overall): 90.4 (72.34) days
Duration of 1st Success, Median (Baseline PGA = 2, Overall): 83.0 days
Duration of 2nd Episode, Mean (SD) (Baseline PGA = 2, Overall): 67.5 (52.79) days
Duration of 2nd Episode, Median (Baseline PGA = 2, Overall): 59.0 days
Duration of 2nd Success, Mean (SD) (Baseline PGA = 2, Overall): 31.9 (43.41) days
Duration of 2nd Success, Median (Baseline PGA = 2, Overall): 27.5 days
Duration of 3rd Episode, Mean (SD) (Baseline PGA = 2, Overall): 28.7 (27.50) days
Duration of 3rd Episode, Median (Baseline PGA = 2, Overall): 29.0 days
Duration of 3rd Success, Mean (SD) (Baseline PGA = 2, Overall): 29.0 (NE) days
Duration of 3rd Success, Median (Baseline PGA = 2, Overall): 29.0 days
Duration of Last Episode, Mean (SD) (Baseline PGA = 2, Overall): 173.2 (97.88) days
Duration of Last Episode, Median (Baseline PGA = 2, Overall): 197.0 days
Duration of Last Success, Mean (SD) (Baseline PGA = 2, Overall): 77.3 (73.84) days
Duration of Last Success, Median (Baseline PGA = 2, Overall): 56.0 days
Total Duration of Treatment Episodes, Mean (SD) (Baseline PGA = 2, Overall): 188.8 (87.61) days
Total Duration of Treatment Episodes, Median (Baseline PGA = 2, Overall): 200.0 days
Total Duration of Treatment Success, Mean (SD) (Baseline PGA = 2, Overall): 98.0 (74.01) days
Total Duration of Treatment Success, Median (Baseline PGA = 2, Overall): 84.0 days
Average Duration of Episodes, Mean (SD) [3]: 177.3 (95.45) days
Average Duration of Episodes, Median [3]: 197.0 days
Average Duration of Treatment Success, Mean (SD) [3]: 78.7 (71.03) days
Average Duration of Treatment Success, Median [3]: 57.0 days
Duration of 1st Episode, Mean (SD) [3]: 179.2 (94.49) days
Duration of 1st Episode, Median [3]: 197.0 days
